From publication PMC7677376 (Cell Discovery, 2020)

Target: T1, MlaFEDB (Acinetobacter baumannii, UniProt A0A086HZU3)
T1 construct: gene ttg2A
Settings: 1 mM vanadate; traps ADP-vanadate at the MlaF ATP sites

T1 sequence (V5V9K5 entry or part of it): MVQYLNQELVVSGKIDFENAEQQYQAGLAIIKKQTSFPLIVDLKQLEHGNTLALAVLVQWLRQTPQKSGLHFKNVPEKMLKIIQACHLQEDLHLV
T1 sequence (V5V9F4 entry or part of it, further chain): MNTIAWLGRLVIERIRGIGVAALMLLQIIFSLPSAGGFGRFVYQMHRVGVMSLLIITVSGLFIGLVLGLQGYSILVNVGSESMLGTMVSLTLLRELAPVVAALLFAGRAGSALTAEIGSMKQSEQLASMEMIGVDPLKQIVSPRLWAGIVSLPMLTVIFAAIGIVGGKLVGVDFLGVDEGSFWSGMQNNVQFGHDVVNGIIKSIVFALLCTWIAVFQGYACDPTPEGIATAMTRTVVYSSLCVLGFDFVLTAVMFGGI
T1 sequence (A0A086HZU3 entry or part of it): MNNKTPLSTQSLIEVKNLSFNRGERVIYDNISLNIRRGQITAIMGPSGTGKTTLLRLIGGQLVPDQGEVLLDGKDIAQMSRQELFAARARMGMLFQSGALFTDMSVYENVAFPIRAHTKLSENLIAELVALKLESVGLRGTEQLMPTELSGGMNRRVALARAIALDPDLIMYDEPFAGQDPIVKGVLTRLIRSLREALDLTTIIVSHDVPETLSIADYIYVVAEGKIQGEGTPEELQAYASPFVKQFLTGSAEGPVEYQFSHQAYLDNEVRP
T1 sequence (V5V921 entry or part of it, further chain): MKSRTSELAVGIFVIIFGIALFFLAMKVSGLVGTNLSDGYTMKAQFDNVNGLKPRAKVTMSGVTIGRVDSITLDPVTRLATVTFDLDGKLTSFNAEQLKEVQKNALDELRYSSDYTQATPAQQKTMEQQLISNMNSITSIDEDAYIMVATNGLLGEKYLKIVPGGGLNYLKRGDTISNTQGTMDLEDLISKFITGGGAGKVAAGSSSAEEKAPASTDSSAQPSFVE

Structure (SMILES): [O]=[V]([OH])([OH])[OH] [sodium ortho-vanadate]
- % inhibition at 1 mM: ~ 50%
